Measured values taken from patent publication US10799590B2, “Compositions containing a bitter tastant and at least one sophorolipid, and methods of reducing bitter taste attributed to a bitter tastant in an edible composition” (The United States of America, as Represented by the …, priority 2015, dated 2020).

Tested on: cultured human fungiform taste papillae cells (HBO cells)
Assay: Calcium imaging of cultured human fungiform taste papillae (HBO) cells: response frequency, estimation of sweet potency
Type: cell-based
Text: In vitro cell-based assay of sweet property. Establishment and maintenance of cultures of human fungiform taste papillae cells (HBO cells): We previously established the current proprietary protocol (Ozdener, H., et al., Chem. Senses, 31(3): 279-90 (2006); Ozdener, M. H., et al., Chem. Senses, 36(7): 601-12 (2011); Ozdener, H., et al., Isolation and culture of human fungiform taste papillae cells, J. Vis. Exp., 2012 May 17;(63):e3730) which allowed us to culture human fungiform taste papillae cells retaining their physiological and molecular characteristics for more than a year. […] The human fungiform taste papillae cells were cultured according to protocols that we have published (Ozdener et al. 2006, Ozdener et al. 2011). Human fungiform taste papillae were removed and immediately placed into an isolation solution followed by enzymatic digestion. Digested fungiform papillae were then gently minced with a surgical razor and seeded on collagen type-1 coated coverslips and incubated at 36° C. in a humidified environment containing 5% CO2. The fungiform taste papillae cells were cultured in Iscove's Modified Dulbecco's medium containing 10% fetal bovine serum, 1:5 ratio of MCDB (Molecular, Cellular, and Developmental Biology) 153 medium, and a triple cocktail of antibiotics (100 U/mL/100 μg/mL, penicillin/streptomycin, and 0.5 μg/mL fungizone). Culture medium was replaced every 5-7 days by one-third of fresh culture medium. Human fungiform taste papillae cells have been maintained in culture for a period of more than 1 year without loss of viability and with retention of the molecular and biochemical properties of acutely isolated taste cells (Ozdener et al., 2011). Calcium imaging: Cultured taste cells grown for 3-4 days glass coverslips which were loaded for 30-60 min with the calcium sensitive dye fura-2 by incubating the cells in Ringer solution (145 mM NaCl, 5 mM KCl, 1 mM MgCl2, 1 mM CaCl2, 1 mM Na-pyruvate, 20 mM Hepes-Na and Cellobiose 15 mM, pH 7.2 with osmolarity adjusted to 300-310 by 5M NaCl) supplemented with […] (Molecular Probes Inc., Eugene, Oreg.) and 10 mg/ml Pluronic® F127 (Molecular Probes Inc.). Coverslips were then placed in a recording chamber and continuously bathed with Ringer solution superfusion. Stimuli were dissolved in Ringer and then pH and osmolarity readjusted if needed. Cells were exposed to sweet ([…]), bitter mixture (PTC (phenylthiocarbamide)) 2mM+Salicin 5 mM+Denatonium 2 mM), guaifenesin (GF, 3 mM) and acetaminophen (APAP, 3 mM), and various sophorolipids stimuli: sophorose, sophorolipid palmitic acid, sophorolipid stearic acid, sophorolipid oleic acid. […]

In the case of OC[C@H]1O[C@@H](O[C@@H]2[C@@H](O)[C@H](O)[C@@H](CO)O[C@H]2O)[C@H](O)[C@@H](O)[C@@H]1O [Sophorose, 2-O-β-D-glucopyranosyl-β-D glucopyranose], the “%-responsive cells” value (cultured human taste cells, concentration 292 uM) is reported as 16.05% and the “Concentration adjusted response frequency” value (tested at 292 uM, adjusted against sucralose 5 mM) is reported as 274.89.
